Results reported in patent publication US20060079490A1, “Method of treatment of type I diabetes” (priority 2001, published 2006).
Like-named read-outs stand apart in the source and are kept apart here.

Legend:
[1] = system: Non-Obese Diabetic (NOD/LtJ) mice; assay: Diabetes incidence (serum glucose >300 mg/dL) in vitamin D-deficient NOD mice given 1,25(OH)2D3 in the diet; format: in vivo, mouse; conditions: for incidence of diabetes: 50 ng/mouse/day in diet from weaning, at termination of experiment
Description: Non-Obese Diabetic (NOD/LtJ) mice were purchased from The Jackson laboratory (Bar Harbor, Me. 04609). Mice were maintained on highly purified vitamin D-deficient diet containing 0.47% calcium and 0.3% phosphorus supplemented with vitamins A, E, and K. This diet was solidified by the addition of molten agar to a powdered diet. To obtain vitamin D-deficiency in the offspring, pregnant mothers were maintained on the vitamin D-deficient diet. Then, offspring, once weaned, were further maintained on the vitamin D-deficient diet. […] Treatment with 1,25(OH)2D3 was started at weaning. Animals were bled from the extraorbital sinus with a glass pipette after a four hour fast at 2 pm once a week. Serum glucose was determined using the Trinder glucose oxidase enzyme assay kit purchased from Sigma (St. Louis, Mo.). 5 μL of NOD serum was used as an unknown and analyzed spectrophotometrically at 505 nm against a known glucose standard (Sigma, St. Louis, Mo.). An animal was considered diabetic if its serum glucose was greater than 300 mg/dL.

NOD/LtJ mice = assay: Diabetes incidence by 200 days with 1,25(OH)2D3 diet started at weaning, 8 weeks or 100 days (study C); format: in vivo, mouse
Procedure: Animals: Mice from an in-house breeding colony of NOD/LtJ mice (Jackson Laboratory) were used for this study. Female mice were randomly weaned into each dietary group. 24 mice were used per group.
Diet Preparation: Experimental purified diets were prepared containing 0.47% calcium supplemented with 25 IU vitamin D3 (Diet 11). […] All purified powder diets were solidified by mixing with molten agar to ensure animals consumed the exact dose of 1,25(OH)2D3. Each mouse was administered 3.5 grams of powder diet per day.
Diet Administration: Experimental purified diets were administered beginning at weaning (3 weeks of age) until 200 days of age. 1,25(OH)2D3-containing diet was administered beginning at weaning (group 2), beginning at 8 weeks of age (group 3), or beginning at 100 days of age (group 4).
Serum glucose determination: Serum glucose was measured using an enzymatic colorimetric assay (Glucose liquicolor, Stanbio, Boerne, Tex.).
Disease analysis: Urine samples were obtained twice weekly from animals older than 70 days of age and tested for urinary glucose using Diastix (Bayer, Elkhart, Ind.). Serum glucose was measured from animals with urine glucose readings >250 mg/dL. Animals with multiple serum glucose values >300 mg/dL at least 24 hours apart were considered diabetic and sacrificed via CO2 asphyxiation. All remaining animals were sacrificed at 200 days of age.

female NOD/LtJ mice [2] = assay: Injection vs. Dietary Study: diabetic incidence at day 200; format: in vivo, mouse; conditions: injection of 50 μg/day (so in the source)
female NOD/LtJ mice [3] = assay: as above; format: in vivo, mouse
Procedure: NOD/LtJ mice were fed control diets (purified Diet 11 as described in Suda, et al., J. Nutr. 100:1049-1052 1970, 0.47% calcium +vitamins A, D, E and K) or experimental diets (control +10, 25 or 50 ng of 1,25D3/mouse/day).
Control (vehicle) animals were injected with 50 μL sterile peanut oil while the experimental animals were injected with 5 μg/kg 1,25D3/mouse/2 days in sterile peanut oil.
(§1) Mice were weaned at 21 days and placed on the appropriate diets. Injections and experimental diets were administered every 48 hours. Control diets were fed 3 times/week. Every 10 days beginning at day 30 and ending on day 170, mice were weighed and bled for serum calcium determination. Beginning on day 70, mice were tested for glucosuria 3 times/week. If a mouse tested positive, it was fasted for 4 hours and bled to measure serum glucose levels. If the fasting serum glucose level was greater than 300 mg%, the mouse was considered diabetic. All mice remaining at 200 days were sacrificed.

[4] = Serum calcium and hypercalcemia in NOD mice given dietary 1,25(OH)2D3 (study A); format: in vivo, mouse; conditions: for serum calcium: 50 ng each day
Description: Non-Obese Diabetic (NOD/LtJ) mice were purchased from The Jackson laboratory (Bar Harbor, Me. 04609). Mice were maintained on highly purified vitamin D-deficient diet containing 0.47% calcium and 0.3% phosphorus supplemented with vitamins A, E, and K. This diet was solidified by the addition of molten agar to a powdered diet. To obtain vitamin D-deficiency in the offspring, pregnant mothers were maintained on the vitamin D-deficient diet. Then, offspring, once weaned, were further maintained on the vitamin D-deficient diet. […] Animals were bled from the extraorbital sinus with a glass pipette after a four hour fast at 2 pm once a week.
Blood was immediately centrifuged to obtain serum. Serum was diluted in 0.1% lanthanum chloride, and serum calcium was measured by atomic absorption using a Perkin-Elmer model 3110 atomic absorption spectrometer.

[5] = mouse, in vivo
Procedure: as §1

NOD mice = conditions: cited from earlier work; for total diabetes incidence at 200 days: control 86%
[6] = administered from 100 to 200 days of age

## C=C1/C(=C\C=C2/CCC[C@]3(C)[C@@H]([C@H](C)CCCC(C)(C)O)CC[C@@H]23)C[C@@H](O)C[C@@H]1O [1,25(OH)2D3, 1α,25-dihydroxyvitamin D3]
[1]; 200 ng group, at any time
  serum glucose values: ≤ 300 mg/dL
[1]; female NOD mice
  incidence of diabetes: 7.69%
[1]; male NOD mice
  incidence of diabetes: 7.14%
NOD/LtJ mice; 50 ng in diet after 100 days of age (group 4), 23 animals
  became diabetic by 200 days of age: 8.7%
NOD/LtJ mice; 50 ng in diet beginning at 8 weeks of age (group 3)
  animals that became diabetic by 200 days of age: 0 of 24
NOD/LtJ mice; 50 ng in diet from weaning (group 2), 24 mice
  became diabetic by 200 days of age: 4.2%
Female NOD/LtJ mice [2]
  effect of injection on incidence of diabetes: increased rather than decreased the incidence of diabetes
Female NOD/LtJ mice [3]; 10 ng diet, day 200
  db %=: 11%
Female NOD/LtJ mice [3]; 10 ng diet, day 200, n=9
  db n=: 1
Female NOD/LtJ mice [3]; 25 ng diet, day 200
  db %=: 22%
Female NOD/LtJ mice [3]; 25 ng diet, day 200, n=9
  db n=: 2
Female NOD/LtJ mice [3]; 50 ng diet, day 200
  db %=: 25%
Female NOD/LtJ mice [3]; 50 ng diet, day 200, n=8
  db n=: 2
Female NOD/LtJ mice [3]; in the diet (oral treatment), day 200
  diabetes incidence: 10-25%
Female NOD/LtJ mice [3]; injected 5 μg/kg/2 days in peanut oil, day 200
  db %=: 71%
Female NOD/LtJ mice [3]; injected 5 μg/kg/2 days in peanut oil, day 200, n=7
  db n=: 5
Female NOD/LtJ mice [3]; injected, day 200
  incidence of diabetes: over 70%
[4]; 200 ng group
  serum calcium levels (evidence of hypercalcemia): ≥ 12 mg/dL
[4]; females, at 40 days
  serum calcium: 10.50 ± 1.53 mg/dL
[4]; females, at 150 days of age
  serum calcium: 13.10 ± 1.01 mg/dL
[4]; females, 50 ng, by 150 days of age
  number of NOD females died of hypercalcemia: 7
[4]; males, at 40 days
  serum calcium: 9.22 ± 0.93 mg/dL
[4]; males, at 150 days of age
  serum calcium: 12.78 ± 1.11 mg/dL
[5]
  hypercalcemia: clearly caused hypercalcemia
NOD mice; [6]
  diabetic incidence: same diabetic incidence as the control group
  onset of diabetes: appeared to be slightly delayed
NOD mice; female NOD mice, injection of 5 μg/kg, control 56%
  incidence of diabetes: 8%
NOD mice; mouse, in vivo
  bone calcium: reduced
NOD mice; treated only until 100 days of age
  total diabetes incidence at 200 days: about 35%
NOD mice; treated until 200 days of age
  total diabetes incidence at 200 days: 13%
